Common to all, as to assay: biochemical
Holding throughout (parameters): KINOMEscan active-site competition binding panel (468 kinase assays), per cent of control at 1000 nM
What all share (conditions): KINOMEscan per cent of control (binding competition); read-out: Percent Control

Test [1] concerns the target T1, MEK2 (Homo sapiens, UniProt P36507).
T1 construct: gene MAP2K2
An excerpt: (§1) Figure S7 / Percent Control

Test [2] deals with T2, YSK1 (Homo sapiens, UniProt O00506).
T2 construct: gene STK25
From the text: as §1

For test [3], the target named is T3, RSK2(Kin.Dom.2-C-terminal) (Homo sapiens, UniProt P51812).
T3 construct: gene RPS6KA3; Kin.Dom.2-C-terminal
T3 sequence (P51812 whole entry): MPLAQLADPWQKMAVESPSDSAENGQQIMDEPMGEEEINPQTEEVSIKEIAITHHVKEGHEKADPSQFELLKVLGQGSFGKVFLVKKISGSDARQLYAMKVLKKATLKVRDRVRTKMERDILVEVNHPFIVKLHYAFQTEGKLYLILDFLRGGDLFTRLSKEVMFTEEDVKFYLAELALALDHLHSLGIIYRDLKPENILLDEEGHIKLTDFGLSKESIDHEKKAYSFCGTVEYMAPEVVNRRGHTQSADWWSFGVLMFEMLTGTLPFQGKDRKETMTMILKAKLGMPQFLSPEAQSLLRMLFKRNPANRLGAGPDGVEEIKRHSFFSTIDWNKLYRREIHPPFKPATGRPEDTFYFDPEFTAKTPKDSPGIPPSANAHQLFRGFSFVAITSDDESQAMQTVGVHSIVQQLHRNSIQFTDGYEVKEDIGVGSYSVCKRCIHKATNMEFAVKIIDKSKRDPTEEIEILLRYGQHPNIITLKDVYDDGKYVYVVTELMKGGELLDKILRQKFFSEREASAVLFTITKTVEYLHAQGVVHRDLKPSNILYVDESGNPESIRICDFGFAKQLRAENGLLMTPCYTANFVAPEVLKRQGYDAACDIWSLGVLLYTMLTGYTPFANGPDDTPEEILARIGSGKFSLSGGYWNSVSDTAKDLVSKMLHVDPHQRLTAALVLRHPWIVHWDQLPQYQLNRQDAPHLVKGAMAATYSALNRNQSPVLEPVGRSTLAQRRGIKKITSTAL
From the text: as §1

The target of test [4] is EGFR(L858R) (Homo sapiens, UniProt P00533, L858R).
From the text: as §1

The target in test [5] is T4, MEK6 (Homo sapiens, UniProt P52564).
T4 construct: gene MAP2K6
From the text: as §1

Test [6] addresses FLT3 (Homo sapiens, UniProt P36888).
From the text: as §1

Test [7] addresses PRKCD (Homo sapiens, UniProt Q05655).
From the text: as §1

For test [8], the target named is ACVR1 (Homo sapiens, UniProt Q04771).
From the text: as §1

The target in test [9] is T5, ERK4 (Homo sapiens, UniProt P31152).
T5 construct: gene MAPK4
From the text: as §1

In test [10] the target is T6, DCAMKL2 (Homo sapiens, UniProt Q8N568).
T6 construct: gene DCLK2
T6 sequence (Q8N568 whole entry): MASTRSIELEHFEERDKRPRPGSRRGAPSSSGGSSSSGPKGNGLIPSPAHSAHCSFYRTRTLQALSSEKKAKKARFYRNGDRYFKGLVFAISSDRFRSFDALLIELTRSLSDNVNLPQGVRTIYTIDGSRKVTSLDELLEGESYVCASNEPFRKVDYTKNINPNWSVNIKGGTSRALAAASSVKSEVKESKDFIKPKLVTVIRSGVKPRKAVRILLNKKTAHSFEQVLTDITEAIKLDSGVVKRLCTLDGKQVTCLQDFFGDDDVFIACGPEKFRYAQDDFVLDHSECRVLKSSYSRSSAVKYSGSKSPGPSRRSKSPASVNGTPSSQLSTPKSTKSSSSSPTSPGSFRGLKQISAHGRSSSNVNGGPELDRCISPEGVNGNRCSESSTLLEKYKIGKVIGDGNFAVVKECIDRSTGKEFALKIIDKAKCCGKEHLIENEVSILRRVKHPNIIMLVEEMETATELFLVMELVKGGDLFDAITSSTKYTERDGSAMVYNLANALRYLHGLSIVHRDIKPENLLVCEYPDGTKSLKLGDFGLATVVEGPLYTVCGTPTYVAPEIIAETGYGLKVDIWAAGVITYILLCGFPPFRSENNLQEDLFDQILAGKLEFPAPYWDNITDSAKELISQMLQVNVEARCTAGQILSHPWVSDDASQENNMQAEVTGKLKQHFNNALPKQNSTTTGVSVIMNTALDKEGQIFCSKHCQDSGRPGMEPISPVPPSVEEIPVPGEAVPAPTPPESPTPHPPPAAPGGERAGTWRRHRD
From the text: as §1

The target in test [11] is MAP3K3 (Homo sapiens, UniProt Q99759).
From the text: as §1

Test [12] concerns the target CHEK2 (Homo sapiens, UniProt O96017).
From the text: as §1

Test [13] deals with MET (Homo sapiens, UniProt P08581).
From the text: as §1

For test [14], the target named is SLK (Homo sapiens, UniProt Q9H2G2).
From the text: as §1

Test [15] concerns the target CLK2 (Homo sapiens, UniProt P49760).
From the text: as §1

In test [16] the target is FGFR3 (Homo sapiens, UniProt P22607).
Sequence of FGFR3 (P22607 whole entry): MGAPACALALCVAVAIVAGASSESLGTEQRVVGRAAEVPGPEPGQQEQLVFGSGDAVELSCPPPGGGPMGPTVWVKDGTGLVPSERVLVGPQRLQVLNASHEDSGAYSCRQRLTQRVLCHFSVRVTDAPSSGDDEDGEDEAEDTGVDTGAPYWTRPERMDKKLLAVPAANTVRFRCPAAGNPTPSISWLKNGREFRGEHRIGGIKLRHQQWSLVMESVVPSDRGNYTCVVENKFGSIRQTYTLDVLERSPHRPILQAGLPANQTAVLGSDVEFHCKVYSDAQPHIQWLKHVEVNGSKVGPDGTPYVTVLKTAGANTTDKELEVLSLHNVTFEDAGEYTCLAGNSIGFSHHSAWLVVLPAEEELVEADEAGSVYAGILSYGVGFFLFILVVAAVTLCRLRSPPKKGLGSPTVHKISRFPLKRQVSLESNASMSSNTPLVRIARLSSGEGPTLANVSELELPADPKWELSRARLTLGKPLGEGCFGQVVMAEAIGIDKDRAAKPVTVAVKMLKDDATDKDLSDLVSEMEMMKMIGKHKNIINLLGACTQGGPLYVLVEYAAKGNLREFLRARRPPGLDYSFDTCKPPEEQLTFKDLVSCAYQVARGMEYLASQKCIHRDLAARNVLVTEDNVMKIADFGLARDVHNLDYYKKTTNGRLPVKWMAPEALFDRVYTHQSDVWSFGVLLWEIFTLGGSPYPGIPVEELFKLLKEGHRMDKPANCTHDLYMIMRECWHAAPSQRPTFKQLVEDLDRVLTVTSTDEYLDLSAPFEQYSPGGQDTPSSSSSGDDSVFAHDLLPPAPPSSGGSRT
From the text: as §1

For test [17], the target named is LRRK2(G2019S) (Homo sapiens, UniProt Q5S007, G2019S).
From the text: as §1

In test [18] the target is ULK3 (Homo sapiens, UniProt Q6PHR2).
Sequence of ULK3 (Q6PHR2 whole entry): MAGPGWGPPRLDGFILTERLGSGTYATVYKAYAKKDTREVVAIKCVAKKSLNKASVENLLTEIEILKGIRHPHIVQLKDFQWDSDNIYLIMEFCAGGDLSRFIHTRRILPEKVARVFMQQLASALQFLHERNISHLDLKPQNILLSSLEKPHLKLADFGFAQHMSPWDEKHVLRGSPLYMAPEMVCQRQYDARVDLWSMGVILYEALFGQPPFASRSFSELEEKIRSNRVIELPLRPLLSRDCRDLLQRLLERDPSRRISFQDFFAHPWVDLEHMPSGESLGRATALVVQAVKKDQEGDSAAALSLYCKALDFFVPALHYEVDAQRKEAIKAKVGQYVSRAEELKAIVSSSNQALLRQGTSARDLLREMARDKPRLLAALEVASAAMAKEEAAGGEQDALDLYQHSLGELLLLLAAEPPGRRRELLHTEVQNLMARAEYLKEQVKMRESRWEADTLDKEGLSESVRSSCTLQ
From the text: as §1

Test [19] concerns the target ERBB2 (Homo sapiens, UniProt P04626).
From the text: as §1

Test [20] concerns the target PAK4 (Homo sapiens, UniProt O96013).
From the text: as §1

The target of test [21] is T7, NDR1 (Homo sapiens, UniProt Q15208).
T7 construct: gene STK38
From the text: as §1

Test [22] concerns the target T8, YANK1 (Homo sapiens, UniProt Q8WU08).
T8 construct: gene STK32A
From the text: as §1

For test [23], the target named is CSF1R-autoinhibited (Homo sapiens, UniProt P07333).
From the text: as §1

The target in test [24] is KIT(V559D) (Homo sapiens, UniProt P10721, V559D).
From the text: as §1

Sequence of PRKCD (Q05655 whole entry): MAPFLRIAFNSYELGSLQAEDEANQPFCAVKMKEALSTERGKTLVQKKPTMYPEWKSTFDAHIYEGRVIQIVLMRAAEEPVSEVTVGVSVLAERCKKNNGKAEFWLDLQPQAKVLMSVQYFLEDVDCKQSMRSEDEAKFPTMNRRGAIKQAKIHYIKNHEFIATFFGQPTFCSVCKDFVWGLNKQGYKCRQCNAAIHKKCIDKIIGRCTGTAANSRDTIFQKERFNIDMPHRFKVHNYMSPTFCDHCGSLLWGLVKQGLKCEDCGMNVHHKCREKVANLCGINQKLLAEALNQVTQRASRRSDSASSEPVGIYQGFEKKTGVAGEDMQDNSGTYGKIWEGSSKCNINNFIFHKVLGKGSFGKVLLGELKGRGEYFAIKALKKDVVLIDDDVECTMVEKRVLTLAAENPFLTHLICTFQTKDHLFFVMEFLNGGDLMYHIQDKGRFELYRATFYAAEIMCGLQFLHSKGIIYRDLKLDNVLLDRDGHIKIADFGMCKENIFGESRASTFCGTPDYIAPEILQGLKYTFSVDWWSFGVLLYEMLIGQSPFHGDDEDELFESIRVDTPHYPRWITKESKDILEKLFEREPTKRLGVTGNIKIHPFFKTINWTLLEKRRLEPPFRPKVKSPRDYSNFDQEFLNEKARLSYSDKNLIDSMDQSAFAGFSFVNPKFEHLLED
Sequence of FLT3 (P36888 whole entry): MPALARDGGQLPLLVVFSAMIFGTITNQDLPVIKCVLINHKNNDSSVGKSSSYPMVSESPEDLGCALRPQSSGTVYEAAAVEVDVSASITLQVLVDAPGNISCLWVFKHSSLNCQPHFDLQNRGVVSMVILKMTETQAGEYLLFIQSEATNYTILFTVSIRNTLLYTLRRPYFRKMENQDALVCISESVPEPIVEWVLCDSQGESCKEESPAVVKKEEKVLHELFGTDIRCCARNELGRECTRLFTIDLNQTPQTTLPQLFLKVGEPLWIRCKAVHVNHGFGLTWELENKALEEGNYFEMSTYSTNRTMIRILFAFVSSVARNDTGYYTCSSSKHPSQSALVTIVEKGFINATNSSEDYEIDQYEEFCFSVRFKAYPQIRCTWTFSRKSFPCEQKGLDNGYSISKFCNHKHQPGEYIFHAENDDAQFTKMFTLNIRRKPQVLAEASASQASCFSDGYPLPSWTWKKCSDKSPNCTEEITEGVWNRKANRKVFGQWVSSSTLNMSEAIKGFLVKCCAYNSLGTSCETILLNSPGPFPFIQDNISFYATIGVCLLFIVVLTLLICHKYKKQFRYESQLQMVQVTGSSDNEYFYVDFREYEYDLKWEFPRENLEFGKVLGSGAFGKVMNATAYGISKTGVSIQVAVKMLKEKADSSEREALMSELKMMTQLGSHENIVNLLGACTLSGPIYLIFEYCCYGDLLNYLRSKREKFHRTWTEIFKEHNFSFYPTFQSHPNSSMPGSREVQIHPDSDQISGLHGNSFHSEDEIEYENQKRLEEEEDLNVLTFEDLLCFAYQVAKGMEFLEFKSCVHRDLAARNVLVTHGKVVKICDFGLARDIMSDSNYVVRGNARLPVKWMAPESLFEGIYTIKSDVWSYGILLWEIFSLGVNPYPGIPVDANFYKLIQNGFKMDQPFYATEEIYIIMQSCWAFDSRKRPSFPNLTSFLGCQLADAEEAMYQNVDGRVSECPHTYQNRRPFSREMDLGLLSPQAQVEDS
T1 sequence (P36507 whole entry): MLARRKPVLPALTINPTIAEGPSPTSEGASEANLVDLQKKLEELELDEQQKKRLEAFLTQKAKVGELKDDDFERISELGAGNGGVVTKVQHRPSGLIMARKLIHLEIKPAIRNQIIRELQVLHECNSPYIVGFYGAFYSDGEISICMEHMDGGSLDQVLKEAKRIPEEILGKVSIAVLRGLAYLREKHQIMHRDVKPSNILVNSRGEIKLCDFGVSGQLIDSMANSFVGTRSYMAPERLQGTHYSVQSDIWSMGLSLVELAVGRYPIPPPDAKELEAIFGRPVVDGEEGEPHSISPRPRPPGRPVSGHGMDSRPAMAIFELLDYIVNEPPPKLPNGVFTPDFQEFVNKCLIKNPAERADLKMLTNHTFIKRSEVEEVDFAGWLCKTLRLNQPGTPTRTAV

With `Cn1c(=O)[nH]c2ccc(-c3cccc(C(=O)NC4CCn5ccnc5C4)c3)cc21` (stereo not drawn) [Z36-MP5], the remaining binding at 1 µM in [1] came to 58%; in [2] it was 98%; in test [3], 63%; in [4], 99%; in [5] it was 99%; in test [6] it was 95%. Moreover, the remaining binding at 1 µM stood at 97% in test [7]; 47% in [8]; 91% in test [9]; 90% in test [10]; 55% in test [11]; 58% in test [12]. Further, the remaining binding at 1 µM worked out at 96% in test [13]; 100% in test [14]; 90% in [15]; 84% in [16]; 59% in [17]; 71% in [18]. Also, the remaining binding at 1 µM in test [19] turned out to be 100%; in test [20], 41%; in test [21], 81%; in [22], 95%; in [23], 54%; in [24], 90%.
